This is an account of results in paper PMC7038073, “Substituted Piperazines as Novel Potential Radioprotective Agents” (Molecules, 2020).

Structures are written as SMILES.

Data set [1] can be described thus: WST-1 cytotoxicity test, HeLa. The data set is classed as cell-based. The conditions noted are these: human, HeLa cells, read-out: relative viability (%) compared to untreated control. On the procedure:
(§1) In this study, the cytotoxic effects of nine new compounds (2, 3, 4, 5, 6, 7, 8, 9, 10) were tested on 10 human cell lines (nine cancer and one non-cancer cell line). The cell lines were treated with each compound at concentrations of 10 µM and 100 µM for 48 h. The proliferation capacity of the treated cells was determined by WST-1 test and compared against the proliferation rate of the untreated control cells (100%).
(§2) The cell lines Jurkat, MOLT-4, A2780, A549, HT-29, PANC-1, HeLa, MCF-7, SAOS-2, and MRC-5 (all purchased from Sigma Aldrich, Czech Republic) were included in this study. All cell lines were maintained according to the provider’s guidelines, and plated and treated in 96-well plates (500 to 30 × 10^3 cells per well). The tested compounds 2, 3, 4, 5, 6, 7, 8, 9, and 10 were dissolved in 0.1% DMSO and kept in 10 mM stock solutions. Before use, the stock solution was diluted in culture media at ratios of 1:100 and 1:1000. The studied cell lines were treated with the compounds 2, 3, 4, 5, 6, 7, 8, 9, and 10 at concentrations of 10 and 100 µM for 48 h. Control cells were tested in culture media with and without DMSO (0.1%). The cells were also treated with 1 µM doxorubicin as a cytotoxicity control.
(§3) The WST-1 (2-(4-iodophenyl)-3-(4-nitrophenyl)-5-(2,4-disulfophenyl)-2H-tetrazolium, monosodium salt) test (Roche, Mannheim, Germany) was used according to the manufacturer’s protocol to determine cell viability in all 10 cell lines 48 h after treatment with the tested compounds. The cells were analyzed in a Tecan Infinite M200 spectrometer (Tecan Group, Männedorf, Switzerland) at 440 nm.

A short description of data set [2]: WST-1 cytotoxicity test, HT-29. It counts as cell-based. The settings on record: human, HT-29 cells, read-out: relative viability (%) compared to untreated control; for viability at 48 h, 10 µM: HT-29, 10 µM. On the procedure:
as §1, §2, §3
A general note: Tetrazolium dyes change colour on reduction, which living cells bring about.

Data set [3] in a line: WST-1 cytotoxicity test, A549. The conditions noted are these: human, A549 cells, read-out: relative viability (%) compared to untreated control; for viability at 48 h, 10 µM: A549, 10 µM. It counts as cell-based. On the procedure: as §1, §2, §3
Data set [4] in a line: WST-1 cytotoxicity test, MRC-5. It counts as cell-based. The conditions noted are these: human, MRC-5 cells, read-out: relative viability (%) compared to untreated control; for viability at 48 h, 10 µM: MRC-5, 10 µM. On the procedure:
as §1, §2, §3

The subject of another data set is A549 cells. The data set is described as follows: MTT assay, IC50 and MTC. The conditions noted are these: for MTC (maximum tolerated concentration): 24 h of treatment; for IC50: Homo sapiens, A549, 24 h, read-out: IC50 ± SEM.
Data set [5] is described as follows: WST-1 cytotoxicity test, MOLT-4. It counts as cell-based. The settings on record: human, MOLT-4 cells, read-out: relative viability (%) compared to untreated control; for viability at 48 h, 10 µM: MOLT-4, 10 µM. Here is the method: as §1, §2, §3
The nature of data set [6]: WST-1 cytotoxicity test, Jurkat. It counts as cell-based. The settings on record: human, Jurkat cells, read-out: relative viability (%) compared to untreated control. On the procedure: as §1, §2, §3
Data set [7] can be described thus: WST-1 cytotoxicity test, A2780. The data set is classed as cell-based. The conditions noted are these: human, A2780 cells, read-out: relative viability (%) compared to untreated control; for viability at 48 h, 10 µM: A2780, 10 µM. On the procedure: as §1, §2, §3
The nature of data set [8]: WST-1 cytotoxicity test, SAOS-2. It counts as cell-based. The conditions noted are these: human, SAOS-2 cells, read-out: relative viability (%) compared to untreated control; for viability at 48 h, 10 µM: SAOS-2, 10 µM. On the procedure: as §1, §2, §3
Data set [9] is described as follows: WST-1 cytotoxicity test, MCF-7. The data set is classed as cell-based. The settings on record: human, MCF-7 cells, read-out: relative viability (%) compared to untreated control; for viability at 48 h, 10 µM: MCF-7, 10 µM. Here is the method: as §1, §2, §3
Data set [10] is described as follows: WST-1 cytotoxicity test, statements over all cell lines. The data set is classed as cell-based, human. The settings on record: human, 10 µM, across all the 10 cell lines tested, read-out: percentage of viable cells. Here is the method: as §1, §2, §3
Data set [11] concerns 10 human cell lines (nine cancer and one non-cancer cell line). The data set is described as above. The data set is classed as cell-based. The conditions noted are these: 48 h. Here is the method: as §1, §2, §3
A short description of data set [12]: WST-1 cytotoxicity test, PANC-1. The settings on record: human, PANC-1 cells, read-out: relative viability (%) compared to untreated control; for viability at 48 h, 10 µM: PANC-1, 10 µM. The data set is classed as cell-based. Here is the method: as §1, §2, §3
The mark [13] stands for this setting: 48 h, WST-1, mean ± SD of three experiments.
[14] abbreviates: 100 µM, 48 h, WST-1, mean ± SD of three experiments.
The mark [15] stands for this setting: doxorubicin 1 µM cytotoxicity control, WST-1, mean ± SD.

Procedure for A549 cells: In further experiments, MTT (3-(4,5-di-methylthiazol-2-yl)-2,5-diphenyltetrazolium bromide) assay was employed to evaluate the toxicological indexes of the newly synthesized compounds, including IC50 (half-maximal inhibitory concentration) and MTC (maximum tolerated concentration).
IC50 and MTC were determined through MTT assays. The MTT assay was performed according to [35]. In brief, the A549 cell line was plated in 96-well plates (100 µL, 9 × 10^3 cells per well) and incubated overnight. The tested compounds were prepared in phosphate buffer saline (PBS; Sigma–Aldrich) and serially diluted in DMEM (Dulbecco’s Modified Eagle Medium). An untreated control was included as a viability standard in each plate. After 24 h of treatment, the viability of A549 cells was measured at 570 nm. All experiments were performed in triplicate. The GraphPad Prism statistics software v5.04 (GraphPad Software Inc., San Diego, CA, USA) was used to calculate the IC50 values for parameter nonlinear regression. Values are expressed as mean ± SEM.

By IC50 is commonly meant the concentration that inhibits the measured activity by half. A word on the melting point: it is the temperature of the solid-liquid transition. Consider `COc1ccc2nc3c(c(NCCN4CCNCC4)c2c1)CCCC3.Cl.Cl.Cl` [Compound 2, 7-Methoxy-N-(2-(piperazin-1-yl)ethyl)-1,2,3,4-tetrahydroacridin-9-amine trihydrochloride], for which the melting point lay in the range of 172 to 173 °C. In addition, the viability at 48 h, 10 µM in [1] (setting [13]) was determined as 25 ± 1%. In addition, in [2] (setting [13]), the viability at 48 h, 10 µM is 28 ± 6%. In data set [3] (setting [13]), the viability at 48 h, 10 µM was determined as 27 ± 3%. The viability at 48 h, 10 µM in data set [4] (setting [13]) turned out to be 23 ± 2%. The “MTC (maximum tolerated concentration)” value in the data set with A549 cells (A549 cells, MTT) came out at 0.002 mM. Besides, the IC50 with A549 cells worked out at 40 ± 2 µM. Besides, the viability at 48 h, 10 µM in data set [5] (setting [13]) was found to be 0%. Besides, in [6] (setting [13]), the viability at 48 h, 10 µM came to 31 ± 14%. Further, the viability at 48 h, 10 µM in data set [7] (setting [13]) was 44 ± 9%. Also, the viability at 48 h, 10 µM in data set [8] (setting [13]) is 28 ± 2%. Besides, the viability at 48 h, 10 µM in data set [9] (setting [13]) was found to be 15 ± 1%. In data set [10], the viability at 48 h, 10 µM is less than 44%. For the same molecule, the “cytotoxic effect (in words)” value in data set [11] (10 µM, tested cell lines) is “highly cytotoxic”. The viability at 48 h, 10 µM in data set [12] (setting [13]) amounted to 39 ± 2%.
As for `COc1ccc2nc3c(c(NCCN4CCN(CCO)CC4)c2c1)CCCC3.Cl.Cl.Cl` [Compound 3, 7-Methoxy-N-{2-[4-(2-hydroxyethyl)piperazin-1-yl]ethyl}-1,2,3,4-tetrahydroacridin-9-amine trihydrochloride], the melting point lay in the range of 157 to 158 °C. Also, the viability at 48 h, 10 µM in [1] (setting [13]) turned out to be 104 ± 13%. In addition, the viability at 48 h, 100 µM in [1] (setting [14]) turned out to be 11 ± 3%. Also, the viability at 48 h, 10 µM in [2] (setting [13]) is 85 ± 11%. Also, the viability at 48 h, 100 µM in data set [2] (HT-29, 100 µM, 48 h, WST-1, mean ± SD of three experiments) is 14 ± 5%. In addition, the viability at 48 h, 10 µM in data set [3] (setting [13]) was determined as 94 ± 15%. Besides, the viability at 48 h, 100 µM in data set [3] (A549, 100 µM, 48 h, WST-1, mean ± SD of three experiments) came out at 13 ± 2%. Also, in [4] (setting [13]), the viability at 48 h, 10 µM was determined as 84 ± 2%. In [4] (MRC-5, 100 µM, 48 h, WST-1, mean ± SD of three experiments), the viability at 48 h, 100 µM is 9 ± 6%. Besides, in the data set on A549 cells (A549 cells, MTT), the “IC50 fold higher than that for compound 2” value turned out to be 3.5 fold and the “MTC (maximum tolerated concentration)” value amounted to 0.01 mM. In addition, the IC50 in the data set on A549 cells was 140 ± 10 µM. Also, the viability at 48 h, 10 µM in [5] (setting [13]) worked out at 81 ± 13%. The viability at 48 h, 100 µM in data set [5] (MOLT-4, 100 µM, 48 h, WST-1, mean ± SD of three experiments) is 2%. Besides, the viability at 48 h, 10 µM in data set [6] (setting [13]) came out at 95 ± 9%. Also, the viability at 48 h, 100 µM in [6] (setting [14]) came out at 12 ± 5%. Besides, the viability at 48 h, 10 µM in [7] (setting [13]) came out at 84 ± 7%. The viability at 48 h, 100 µM in data set [7] (A2780, 100 µM, 48 h, WST-1, mean ± SD of three experiments) worked out at 20 ± 5%. Further, in data set [8] (setting [13]), the viability at 48 h, 10 µM is 80 ± 4%. Further, in data set [8] (SAOS-2, 100 µM, 48 h, WST-1, mean ± SD of three experiments), the viability at 48 h, 100 µM turned out to be 10 ± 2%. Moreover, the viability at 48 h, 10 µM in data set [9] (setting [13]) amounted to 84 ± 9%. Besides, in data set [9] (MCF-7, 100 µM, 48 h, WST-1, mean ± SD of three experiments), the viability at 48 h, 100 µM worked out at 10 ± 2%. Besides, the “decrease of cell viability” value in [11] (100 µM, all the tested cell lines) is on record as no less than 70%. Besides, the “cytotoxic effect (in words)” value in [11] (100 µM, studied cell lines) is given as “highly cytotoxic”. For the same molecule, in data set [12] (setting [13]), the viability at 48 h, 10 µM came out at 78 ± 6%. For the same molecule, the viability at 48 h, 100 µM in data set [12] (PANC-1, 100 µM, 48 h, WST-1, mean ± SD of three experiments) amounted to 30 ± 4%.
In the case of `COc1cccc2c1C(=O)c1c(O)c3c(c(O)c1C2=O)C[C@@](O)(C(=O)CO)C[C@@H]3O[C@H]1C[C@H](N)[C@H](O)[C@H](C)O1` [DOX, doxorubicin, reference compound], the viability at 48 h, 1 µM in data set [1] (setting [15]) came out at 76 ± 12%; in data set [2] (HT-29, doxorubicin 1 µM cytotoxicity control, WST-1, mean ± SD), 55 ± 18%; in data set [3] (A549, doxorubicin 1 µM cytotoxicity control, WST-1, mean ± SD), 42 ± 11%; in [4] (MRC-5, doxorubicin 1 µM cytotoxicity control, WST-1, mean ± SD) it was 22 ± 2%; in data set [5] (MOLT-4, doxorubicin 1 µM cytotoxicity control, WST-1, mean ± SD) it was 1%; in data set [6] (setting [15]), 2%. Also, the viability at 48 h, 1 µM in data set [7] (A2780, doxorubicin 1 µM cytotoxicity control, WST-1, mean ± SD) worked out at 8 ± 4%; in data set [8] (SAOS-2, doxorubicin 1 µM cytotoxicity control, WST-1, mean ± SD) it was 22 ± 4%; in [9] (MCF-7, doxorubicin 1 µM cytotoxicity control, WST-1, mean ± SD), 32 ± 3%; in data set [12] (PANC-1, doxorubicin 1 µM cytotoxicity control, WST-1, mean ± SD), 78 ± 7%.
